Measurements from patent US10426758B2, “Sibiriline derivatives for use for preventing and/or treating disorders associated with cellular necroptosis” (Institut National de la Sante et de la Recherche Medicale …, priority 2015, dated 2019).

How the values were obtained:
[1] = tested on: Jurkat FADD-deficient cells (Jurkat FADD−/−); assay: Anti-necroptotic effect, Jurkat FADD-deficient cells, TNF, FACS of propidium iodide-stained nuclei; assay type: cell-based, human
Protocol: (§1) L929 cells, L929AsFas cells, Jurkat FADD-deficient cells (Jurkat FADD^−/−), U937 cells are pretreated for 1 h with increased concentrations of Sib (0, 5, 10, 20 μM) and then treated respectively with TNF-α (10 ng/ml)+zVAD (20 μM), FasL (200 ng/ml)+zVAD (20 μM), TNF-α (10 ng/ml), TRAIL (200 ng/ml)+zVAD (30 μM) or TRAIL (200 ng/ml)+zVAD (30 μM)+CHX (1 μg/ml). % of cell death is determined after 24 h and calculated by a FACS analysis of Propidium Iodide-stained nuclei. In each case, the EC50 is determined as well as the % of rescue from cell death.

U937 cells = assay: Anti-necroptotic effect, U937 cells, TRAIL + zVAD + CHX, FACS of propidium iodide-stained nuclei; assay type: cell-based
Protocol: as §1

[2] = tested on: Jurkat FADD-deficient I 2.1 cell line; assay: Cell-based screening: TNF-α-induced necroptosis in Jurkat FADD-deficient cells, MTS viability assay; parameters: species or system human
From the text: TNF-α can induce necroptosis in Jurkat cells (human T lymphocytes) when FADD is deleted. This model was used to screen various libraries of chemical compounds for characterization of new inhibitors of cellular necroptosis. Details on this cell-based assay can be found in (Miao and Degterev, Methods Mol. Biol. 2009, 559, 79-93). The Jurkat FADD-deficient I 2.1 cell line used was purchased from ATCC and was maintained in RPMI 1640 medium (Gibco) containing Glutamax and 15% fetal calf serum (Life Technology). Necroptosis was induced by addition of 10 ng/ml of human recombinant TNF-α (Life Technology). Necrostatin-1 (Nec-1, Enzo Life Sciences) was used as model necroptosis inhibitor. Cells were maintained in 75 cm^2 flask and passed every 2 or 3 days. Chemical collections analysed were formatted in 96-well plates with 80 molecules per plates at 10 mM in 100% DMSO. For each collection plate, 2 cell plates were seeded (one necroptosis-induced with TNF-α and the other without TNF-α). Cells were seeded at 20000 cells/well, in 40 μl of medium, in a 96-well clear, flat bottom plate (CytoOne, Starlab) before treatment. Then, 40 μl of medium with or without TNF-α at 25 ng/ml were added to all wells in the corresponding plate. Immediately after TNF-α addition, 20 μl of diluted compound at 50 μM were added to the plates. Final concentration of each chemical compound was 10 μM at 0.1% DMSO. Four positives (Nec-1 at 10 μM final) and four negative (DMSO) controls were used in each plate to validate the assay. Cells were incubated at 37° C., 5% CO2 for 24 hours before performing MTS viability assay, described hereafter. Compounds were diluted before to treat cells. Liquid handling was performed using the Nimbus Microlab liquid handler (Hamilton Robotics) under microbiological safety workbench. The 10 mM compounds were diluted at 50 μM directly in cell medium.

L929 cells = assay: Clonogenic assay (CA); assay type: cell-based; settings: 10 μM for 24 hours with TNF-α (10 ng/ml)/z-VAD (20 μM); 15 days of culture
Protocol: This effect of Sibiriline on necroptosis was verified using clonogenic assay (CA). CA is an in vitro cell survival assay based on the ability of a single cell to grow into a colony.
L929 cells are treated by TNF-α (10 ng/ml)/z-VAD (20 μM) w/or w/o 10 μM Sib for 24 hours. After treatment, cells are seeded out in appropriate dilutions (here 5,000 cells per well) to form colonies in 2 weeks. Colonies are fixed with ice cold methanol and stained with crystal violet.

## Oc1ccc(-c2cc3cccnc3[nH]2)cc1 [compound 2, 4-(1H-pyrrolo[2,3-b]pyridin-2-yl)phenol]
[1]; Homo sapiens, 1 h pretreatment, cell death after 24 h
  EC50: 1200 nM
[1]; rescue from cell death, 24 h
  % Rescue: 90%
U937 cells; Homo sapiens, U-937, 1 h pretreatment, cell death after 24 h
  EC50: 20000 nM
U937 cells; rescue from cell death, 24 h
  % Rescue: 50%
[2]; Homo sapiens, Jurkat, necroptosis induced by 10 ng/ml TNF-α, 24 hours, MTS viability
  EC50: 1300 nM
[2]; human T lymphocyte, Jurkat FADD deficient cell line
  inhibition of necroptosis induced by TNF-α (figure legend): dose-dependent inhibition
L929 cells
  cell colonies (cellular growth) after treatment: can restore the cellular growth and protect cells from death
